The record followed here is ChEMBL document CHEMBL1795221, “In vitro and in vivo anticancer activity evaluation of ursolic acid derivatives” (Eur J Med Chem, 2011).

One assay concerns BGC-823. The assay is described as follows: Cytotoxicity against human BGC823 cells after 24 hrs by MTT assay. The class given is functional, cell-based. The following applies: BGC-823, 24 h. Background: Tetrazolium dyes change colour on reduction, which living cells bring about.
Another assay concerns SH-SY5Y. The assay is described as follows: Cytotoxicity against human SH-SY5Y cells after 24 hrs by MTT assay. The class given is functional, cell-based.
Assay [1] can be described thus: Cytotoxicity against human HELF cells after 24 hrs by MTT assay. The class given is cell-based.
The next assay relates to HepG2. The assay is described as follows: cells. The following applies: Homo sapiens, HepG2, 24 h.
The subject of the next assay is HeLa. As to the kind of experiment: cells. The following applies: Homo sapiens, 24 h.

For orientation: IC50 means the concentration at which inhibition is half-maximal. A high value points to weaker potency.

Description for HeLa: Cytotoxicity against human HeLa cells after 24 hrs by MTT assay
Description for HepG2: Cytotoxicity against human HepG2 cells after 24 hrs by MTT assay

Consider `CCOC(=O)[C@]12CC[C@@H](C)[C@H](C)[C@H]1C1=CC[C@@H]3[C@@]4(C)CC[C@H](OC(C)=O)C(C)(C)[C@@H]4CC[C@@]3(C)[C@]1(C)CC2`, for which the IC50 (with BGC-823; with SH-SY5Y; in assay [1]; in the assay on HepG2; in the assay with HeLa) was above 100 µM in each case.
As for `C[C@H]1[C@H](C)CC[C@]2(C(=O)OCCCO[N+](=O)[O-])CC[C@]3(C)C(=CC[C@@H]4[C@@]5(C)CC[C@H](O)C(C)(C)[C@@H]5CC[C@]43C)[C@H]12`, the IC50 in the assay with BGC-823 amounted to 98.3 µM; in the assay on SH-SY5Y, 89.6 µM; in assay [1] it was 82.6 µM; in the assay with HepG2, 87.4 µM; in the assay on HeLa it was 69.4 µM.
The like results for `C[C@H]1[C@H](C)CC[C@]2(C(=O)N3CCC(CCO)CC3)CC[C@]3(C)C(=CC[C@@H]4[C@@]5(C)CC[C@H](O)C(C)(C)[C@@H]5CC[C@]43C)[C@H]12` were, in that order, above 100 µM, above 100 µM, above 100 µM, above 100 µM and 67.3 µM.
In the case of `CCCOC(=O)[C@]12CC[C@@H](C)[C@H](C)[C@H]1C1=CC[C@@H]3[C@@]4(C)CC[C@H](OC(C)=O)C(C)(C)[C@@H]4CC[C@@]3(C)[C@]1(C)CC2`, the IC50 (with BGC-823; in the assay with SH-SY5Y; in assay [1]; in the assay on HepG2; with HeLa) was above 100 µM in each case.
For the molecule `C[C@H]1[C@H](C)CC[C@]2(C(=O)N(CCO)CCO)CC[C@]3(C)C(=CC[C@@H]4[C@@]5(C)CC[C@H](O)C(C)(C)[C@@H]5CC[C@]43C)[C@H]12`, the IC50 in the assay on BGC-823 was found to be 39.3 µM; in the assay with SH-SY5Y, 21.4 µM; in assay [1] it was 36.9 µM; with HepG2, 35.7 µM; in the assay on HeLa, 14.4 µM.
Take `COC(=O)C(CO)NC(=O)[C@]12CC[C@@H](C)[C@H](C)[C@H]1C1=CC[C@@H]3[C@@]4(C)CC[C@H](OC(C)=O)C(C)(C)[C@@H]4CC[C@@]3(C)[C@]1(C)CC2` (stereo not given in full): the 50% inhibitory concentration (IC50) with BGC-823 is 29 µM; with SH-SY5Y, 37.2 µM; in assay [1] it was 22.3 µM; in the assay on HepG2, 35.3 µM; in the assay on HeLa, 20.6 µM.
Turning to `CC(=O)O[C@H]1C(=O)[C@@]2(C)[C@H]([C@H](OC(=O)c3ccccc3)[C@]3(O)C[C@H](OC(=O)[C@H](O)[C@@H](NC(=O)c4ccccc4)c4ccccc4)C(C)=C1C3(C)C)[C@]1(OC(C)=O)CO[C@@H]1C[C@@H]2O` [PACLITAXEL], the IC50 with BGC-823 was determined as 9.24 µM; in the assay with SH-SY5Y, 8.56 µM; in assay [1] it was 7.17 µM; in the assay on HepG2 it was 10.3 µM; in the assay with HeLa it was 6.62 µM.
For the molecule `CC(=O)O[C@H]1CC[C@]2(C)[C@H]3CC=C4[C@@H]5[C@@H](C)[C@H](C)CC[C@]5(C(=O)N5CCC(CCO)CC5)CC[C@@]4(C)[C@]3(C)CC[C@H]2C1(C)C`, the IC50 was found to be 51.3 µM in the assay on BGC-823; 40.1 µM in the assay on SH-SY5Y; 30 µM in assay [1]; 59.4 µM in the assay on HepG2; 12.4 µM in the assay on HeLa.
On to `C[C@H]1[C@H](C)CC[C@]2(C(=O)NC(Cc3ccc(O)cc3)C(=O)O)CC[C@]3(C)C(=CC[C@@H]4[C@@]5(C)CC[C@H](O)C(C)(C)[C@@H]5CC[C@]43C)[C@H]12` (stereo not given in full), for which the IC50 (in the assay with BGC-823; with SH-SY5Y; in assay [1]; in the assay on HepG2; with HeLa) was above 100 µM each time.
With `C[C@H]1[C@H](C)CC[C@]2(C(=O)NCCO)CC[C@]3(C)C(=CC[C@@H]4[C@@]5(C)CC[C@H](O)C(C)(C)[C@@H]5CC[C@]43C)[C@H]12`, the IC50 with BGC-823 worked out at 78.3 µM; in the assay on SH-SY5Y, 65 µM; in assay [1] it was 52.8 µM; with HepG2, 82.4 µM; with HeLa, 32.3 µM.
On the same counts, the results for `C[C@H]1[C@H](C)CC[C@]2(C(=O)NC(CO)C(=O)O)CC[C@]3(C)C(=CC[C@@H]4[C@@]5(C)CC[C@H](O)C(C)(C)[C@@H]5CC[C@]43C)[C@H]12` (stereo not given in full) are 79.3 µM, 72.2 µM, 60.3 µM, 83 µM and 41.6 µM.
Consider `COC(=O)C(Cc1ccc(O)cc1)NC(=O)[C@]12CC[C@@H](C)[C@H](C)[C@H]1C1=CC[C@@H]3[C@@]4(C)CC[C@H](OC(C)=O)C(C)(C)[C@@H]4CC[C@@]3(C)[C@]1(C)CC2` (stereo not given in full), for which the concentration for half-maximal inhibition (IC50) was 83 µM in the assay on BGC-823; above 100 µM in the assay with SH-SY5Y; 35.8 µM in assay [1]; above 100 µM in the assay on HepG2; 67 µM in the assay on HeLa.
On to `C[C@H]1[C@H](C)CC[C@]2(C(=O)OCCO[N+](=O)[O-])CC[C@]3(C)C(=CC[C@@H]4[C@@]5(C)CC[C@H](O)C(C)(C)[C@@H]5CC[C@]43C)[C@H]12`, for which the IC50 with BGC-823 came to 84.2 µM; in the assay with SH-SY5Y, 71.1 µM; in assay [1], 68.1 µM; in the assay on HepG2, 79.6 µM; in the assay on HeLa, 36.2 µM.
On the same counts, the results for `C[C@H]1[C@H](C)CC[C@]2(C(=O)N3CCN(CCOCCO)CC3)CC[C@]3(C)C(=CC[C@@H]4[C@@]5(C)CC[C@H](O)C(C)(C)[C@@H]5CC[C@]43C)[C@H]12` are 35 µM, 30.3 µM, 28.1 µM, 36.7 µM and 23.8 µM.
On to `CC(=O)O[C@H]1CC[C@]2(C)[C@H]3CC=C4[C@@H]5[C@@H](C)[C@H](C)CC[C@]5(C(=O)NCCO)CC[C@@]4(C)[C@]3(C)CC[C@H]2C1(C)C`, for which the concentration for half-maximal inhibition (IC50) was 48.5 µM in the assay with BGC-823; 49.4 µM in the assay with SH-SY5Y; 27.8 µM in assay [1]; 46.6 µM with HepG2; 16.3 µM in the assay with HeLa.
On to `CCCCOC(=O)[C@]12CC[C@@H](C)[C@H](C)[C@H]1C1=CC[C@@H]3[C@@]4(C)CC[C@H](OC(C)=O)C(C)(C)[C@@H]4CC[C@@]3(C)[C@]1(C)CC2`, for which the IC50 (in the assay with BGC-823; in the assay on SH-SY5Y; in assay [1]; in the assay on HepG2; with HeLa) was above 100 µM each time.
On to `CC(=O)O[C@H]1CC[C@]2(C)[C@H]3CC=C4[C@@H]5[C@@H](C)[C@H](C)CC[C@]5(C(=O)N5CCN(CCO)CC5)CC[C@@]4(C)[C@]3(C)CC[C@H]2C1(C)C`, for which the IC50 came to 13.9 µM in the assay on BGC-823; 11.7 µM in the assay on SH-SY5Y; 31 µM in assay [1]; 20.5 µM with HepG2; 7.24 µM in the assay with HeLa.
With `CCCOC(=O)[C@]12CC[C@@H](C)[C@H](C)[C@H]1C1=CC[C@@H]3[C@@]4(C)CC[C@H](O)C(C)(C)[C@@H]4CC[C@@]3(C)[C@]1(C)CC2`, the half-maximal inhibitory concentration (IC50) with BGC-823 was 79.7 µM; in the assay on SH-SY5Y it was 92.5 µM; in assay [1] it was above 100 µM; with HepG2 it was 89.1 µM; in the assay with HeLa it was 48 µM.
Consider `CCCCOC(=O)[C@]12CC[C@@H](C)[C@H](C)[C@H]1C1=CC[C@@H]3[C@@]4(C)CC[C@H](O)C(C)(C)[C@@H]4CC[C@@]3(C)[C@]1(C)CC2`, for which the IC50 with BGC-823 was above 100 µM; in the assay on SH-SY5Y it was above 100 µM; in assay [1], above 100 µM; in the assay with HepG2, above 100 µM; in the assay with HeLa, 63.2 µM.
